# Tests used:
# Human recombinant p38α = biological target: T1, Human recombinant p38α (Homo sapiens, UniProt Q16539); assay: In vitro enzyme assay, p38α kinase inhibition; format: biochemical; conditions: activated p38α, Myelin Basic Protein substrate, 33P ATP
# T1 construct: c-myc (N); 6His (N); made in house; host or cells: E. coli (PET vectors)
# Method: The ability test compounds to inhibit the enzyme p38 kinase was assessed. Activity of the test compound against each of the p38α and […] isoforms of the enzyme was determined.
# Human recombinant MKK6 (GenBank Accession Number G1209672) was isolated from Image clone 45578 (Genomics, 1996, 33, 151) and utilised to produce protein in the form of a GST fusion protein in a pGEX vector using analogous procedures to those disclosed by J. Han et al., Journal of Biological Chemistry, 1996, 271, 2886-2891. p38α (GenBank Accession Number G529039) and p38β (GenBank Accession Number G1469305) were isolated by PCR amplification of human lymphoblastoid cDNA (GenBank Accession Number GM1416) and human foetal brain cDNA [synthesised from mRNA (Clontech, catalogue no. 6525-1) using a Gibco superscript cDNA synthesis kit] respectively using oligonucleotides designed for the 5′ and 3′ ends of the human p38α and p38β genes using analogous procedures to those described by J. Han et al., Biochimica et Biophysica Acta, 1995, 1265, 224-227 and Y. Jiang et al., Journal of Biological Chemistry, 1996, 271, 17920-17926.
# Both p38 protein isoforms were expressed in E. coli in PET vectors. Human recombinant p38α and p38β isoforms were produced as 5′ c-myc, 6His tagged proteins. Both MKK6 and the p38 proteins were purified using standard protocols: the GST MKK6 was purified using a glutathione sepharose column and the p38 proteins were purified using nickel chelate columns.
# The p38 enzymes were activated prior to use by incubation with MKK6 for 3 hours at 30° C. The unactivated E. coli-expressed MKK6 retained sufficient activity to fully activate both isoforms of p38. For p38α, the activation incubate comprised p38α (50 μl of 10 mg/ml), MKK6 (5 μl of 12 mg/ml), ‘Kinase buffer’ [550 μl; pH 7.4 buffer comprising Tris HCl (50 mM), EGTA (0.1 mM), sodium orthovanadate (0.1 mM) and (1-mercaptoethanol (0.1%)], Mg [75 μl of 100 mM Mg(OCOCH3)2] and ATP (75 μl of 1 mM). The activation incubate for p38β was similar to the above except containing […] enzyme (82 μl at 3.05 mg/ml) and 518 μl “Kinase buffer”. p38α and p38β activation incubates were either used fresh or aliquoted and stored at −80° C.
# The test compound was solubilised in DMSO (10 mM) and 1:3 serial dilutions in DMSO carried out in polypropylene plates (Costar 3365). Compound dilutions were then diluted 1:10 in “Kinase buffer” and 10 μl transferred to a microtiter assay plate (Costar 3596). Control wells contained 10 μl (1:10 dilution in kinase buffer) DMSO. ‘Kinase Assay Mix’ [[…]; comprising Myelin Basic Protein (Sigma M-1891; 0.5 ml of a 6.66 mg/ml solution in “Kinase buffer”), activated p38α enzyme (3.8 μl) and ‘Kinase Buffer’ (2.55 ml)] was then added. Control wells on each plate either contained the above “Kinase Assay Mix” (n=6 replicates) or contained “Kinase Assay Mix” in which the activated p38 enzyme was replaced by Kinase buffer (n=6 replicates). ‘Labelled ATP’ was then added to all wells […]; comprising 50 μM ATP, 5 μCi ^33P ATP (Amersham International cat. no. AH9968) and 50 mM Mg(OCOCH3)2]. For p38β, 23 μl activated p38β enzyme and “Kinase buffer” (2.53 ml) were included in the “Kinase Assay Mix”. The final concentration of test compound was 2.4 μM-0.001 μM (n=2 replicates). Microtiter plates were incubated at ambient temperature (with gentle agitation) for 60 minutes and the reaction stopped by addition of 20% trichloroacetic acid (TCA) (50 μl). The precipitate protein was captured onto filter plates (PerkinElmer 6005174) using a Packard Filtermate harvester (2% TCA wash) which was then dried overnight and 25 μl MICROSCINT O (Packard O6013611) added to each well. Plates were counted on a Top Count scintillation counter. Dose response curves were generated using an in house automated data analysis package and an Origin curve fitting package.
# [1] = tested on: TNFα production in human whole blood; assay: Human whole blood assay, inhibition of LPS-stimulated TNFα production; format: cell-based; conditions: LPS 10 μg/ml, 6 hours, TNFα by ELISA
# Method: [formula] (ii) Human Whole Blood
# The ability of a test compound to inhibit TNFα production was also assessed in a human whole blood assay. Human whole blood secretes TNFα when stimulated with LPS.
# Heparinised (10 units/ml) human blood was obtained from volunteers. 160 μl whole blood was added to 96 well round-bottom plates (Corning 3799). Compounds were solubilised in DMSO at a concentration of 10 mM, diluted 1:100 in “culture medium” [RPMI 1640 medium (Sigma) containing 50 units/ml penicillin, 50 μg/ml streptomycin and 2 mM glutamine] and subsequently serial dilutions were made in culture medium containing 1% DMSO. 20 μl of each test concentration was added to appropriate wells (triplicate cultures)(final concentration dose range of 10 μM-0.0001 μM). 20 μl of RPMI culture medium containing 1% DMSO was added to control wells.
# Plates were incubated for 30 minutes at 37° C. (humidified incubator), prior to addition of 20 μl LPS (final concentration 10 μg/ml). Culture medium was added to control wells. Six “LPS alone” and six “medium alone” controls were included on each plate. A known TNFα synthesis/secretion inhibitor was included in each test. Plates were incubated for 6 hours at 37° C. (humidified incubator). Plates were centrifuged (2000 rpm for 10 minutes) and 80 μl plasma removed and stored at −80° C. (Corning 3799 plates). TNFα levels were measured by ELISA using paired antibodies from R&D Systems (catalogue nos. MAB610 and BAF210).
# T1 sequence (Q16539 whole entry): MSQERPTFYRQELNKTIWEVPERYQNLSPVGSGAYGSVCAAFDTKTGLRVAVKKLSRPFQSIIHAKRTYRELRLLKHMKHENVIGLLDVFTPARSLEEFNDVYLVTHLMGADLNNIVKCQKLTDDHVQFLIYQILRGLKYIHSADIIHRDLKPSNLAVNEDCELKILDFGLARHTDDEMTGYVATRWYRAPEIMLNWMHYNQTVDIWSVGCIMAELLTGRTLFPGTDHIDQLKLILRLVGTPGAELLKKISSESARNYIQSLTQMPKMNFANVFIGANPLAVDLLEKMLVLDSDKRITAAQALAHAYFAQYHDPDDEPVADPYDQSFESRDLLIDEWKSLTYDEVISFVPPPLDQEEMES
IC50 (Human recombinant p38α) [nM],IC50 [1] [nM],Structure (SMILES)
6,140,"Cc1ccc(C(=O)NC2CC2)cc1NC(=O)c1ccc(OCc2ccccn2)c(F)c1 [5[y], N-{5-[(cyclopropylamino)carbonyl]-2-methylphenyl}-3-fluoro-4-(pyridin-2-ylmethoxy)benzamide]"
10,520,"Cc1ccc(C(=O)NC2CC2)cc1NC(=O)c1ccc(OCc2cn3ccccc3n2)cc1 [5[e], N-cyclopropyl-3-{[4-(imidazo[1,2-a]pyridin-2-ylmethoxy)benzoyl]amino}-4-methylbenzamide]"
7,300,"Cc1nc(COc2ccc(C(=O)Nc3cc(C(=O)NC4CC4)ccc3C)cc2F)cs1 [5[z], N-{5-[(cyclopropylamino)carbonyl]-2-methylphenyl}-3-fluoro-4-[(2-methyl-1,3-thiazol-4-yl)methoxy]benzamide]"
59,1800,"Cc1ccc(C(=O)NC2CC2)cc1NC(=O)c1ccc(OCc2ncccc2C)cc1 [Example 8, N-cyclopropyl-4-methyl-3-({4-[(3-methylpyridin-2-yl)methoxy]benzoyl}amino)benzamide]"
170,1700,"Cc1ccc(C(=O)NC2CC2)cc1NC(=O)c1cnc(OCc2nccs2)nc1 [23[a], N-{5-[(cyclopropylamino)carbonyl]-2-methylphenyl}-2-(1,3-thiazol-2-ylmethoxy)pyrimidine-5-carboxamide]"
7,70,"Cc1ccc(C(=O)NC2CC2)cc1NC(=O)c1ccc(OCc2cscn2)c(F)c1 [5[ac], N-{5-[(cyclopropylamino)carbonyl]-2-methylphenyl}-3-fluoro-4-(1,3-thiazol-4-ylmethoxy)benzamide]"
4400,> 10000,"COc1ccc(C(=O)Nc2cc(C(=O)NC3CCC3)ccc2C)cc1OC [Comparator Compound X, N-cyclobutyl-3-(3,4-dimethoxybenzamido)-4-methylbenzamide, reference compound]"

# Source: patent publication US8742124B2, “Amide derivatives bearing a cyclopropylaminoacarbonyl substituent useful as cytokine inhibitors” (AstraZeneca AB, priority 2003, dated 2014)
